Consider 14 molecules from patent US20240067651A1 (Biohaven Therapeutics Ltd., priority 2019, published 2024).

A word on the Papp: it is the rate of passage across a membrane or cell layer, normalised by area and donor concentration.

The nature of data set [1]: Stability in Simulated Intestinal Fluid (SIF). It counts as in vitro ADME. Also on record: key: % parent compound remaining relative to 0-minute sample. The gist of the method: (§1)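 Each compound is spiked to a final 2 μg/mL into SGF with pepsin (pH 1.2) and into SIF with pancreatin (pH 6.8). Samples shake at 37° C, aliquots are taken between 0 and 60 minutes, precipitated with acetonitrile and analysed by LC-MS/MS. Degradation half-life is derived from the natural-log plot where time points allow.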

A short description of data set [2]: Plasma Stability. Format: in vitro ADME, human. The gist of the method: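 Parent compound quantified by LC-MS/MS after acetonitrile precipitation, reported as percent of control remaining (triplicate). Incubation: 1 hour, 37° C, fresh human plasma, compound at 1 μM.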
Data set [3] relates to Caco-2 monolayer. In words: Caco-2 Permeability Assay. Format: in vitro ADME, human. The gist of the method: (§2)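 Bidirectional transport at 37 °C for 90 min, 10 μM donor concentration, with or without Pgp inhibitor, across 21-day Caco-2 monolayers with TEER >600 […] in HEPES-buffered HBSS, pH 7.4. LC-MS/MS of donor and receiver samples gives Papp, B→A/A→B efflux ratio and mass recovery.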
Background: Caco-2 cells form a polarised layer with tight junctions and transporters.

Data set [4] is described as follows: Stability in Simulated Gastric Fluid (SGF). It counts as in vitro ADME. Also noted: key: % parent compound remaining relative to 0-minute sample. An outline of the steps: as §1
A short description of data set [5]: Caco-2 Permeability Assay. Format: in vitro ADME, human. Particulars: human, Caco-2, pH 7.4, Caco-2 monolayer. An outline of the steps: as §2
Where [6] appears, read: simulated intestinal fluid, remaining at 1 h.
The mark [7] stands for this setting: simulated gastric fluid, remaining at 1 h.
[8] abbreviates: % remaining after 1 h in simulated intestinal fluid.
Setting [9] is: % remaining after 1 h in human plasma.
Setting [10] is: % remaining after 1 h in simulated gastric fluid.

A value given as a limit tells only on which side of the number the result lay.

Take “1-tert-butyl 2-{4-oxo-1-[2-(propan-2-yloxy)ethyl]-2-sulfanylidene-1H,2H,3H,4H,5H-pyrrolo[3,2-d]pyrimidin-5-yl}methyl (2R)-pyrrolidine-1,2-dicarboxylate [Example 393]”: the SIF in data set [1] (setting [6]) is 94% remaining. Further, the “human Plasma stability” value in data set [2] (human plasma, remaining at 1 h) amounted to 92% remaining. Further, the “Caco-2 Papp” value in data set [3] (Caco-2 monolayer) is 0.11 ×10⁻⁶ cm/s. Further, the SGF in data set [4] (setting [7]) is listed as 99% remaining.

For “5-[{[4-(carbamoyloxy)butoxy]carbon-yl}oxy)methyl]-1-[2-(propan-2-yloxy)ethyl]-2-sulfanylidene-1H,2H,3H,4H,5H-pyrrolo[3,2-d]pyrimidin-4-one [Example 411]”, the SIF in data set [1] (setting [8]) is reported as 22% remaining. In data set [2] (setting [9]), the “human Plasma stability” value is listed as 1% remaining. Also, in data set [3] (Caco-2 monolayer), the “Caco-2 Papp” value is less than 0.107 ×10⁻⁶ cm/s. In data set [4] (setting [10]), the SGF is 92% remaining.

Regarding “5-{({2-[2-(carbamoyloxy)ethoxy]ethoxy}car-bonyl)oxy]methyl}-1-[2-(propan-2-yloxy)ethyl]-2-sulfanylidene-1H,2H,3H,4H,5H-pyrrolo[3,2-d]pyrimidin-4-one [Example 402]”, the SIF in data set [1] (setting [8]) is 89% remaining. For the same molecule, in data set [2] (setting [9]), the “human Plasma stability” value was found to be 99% remaining. Besides, the “Caco-2 Papp” value in data set [3] (Caco-2 monolayer) stood at 24.6 ×10⁻⁶ cm/s. Moreover, the SGF in data set [4] (setting [10]) is 99% remaining.

In the case of “5-{[2-({[(5-{[(2R)-2-{[(tert-butoxy)carbonyl]amino}-4-methylpentanoyl]oxy}penta-noyl)oxy]methyl}sulfanyl)-4-oxo-1-[2-(propan-2-yloxy)ethyl]-1H,4H,5H-pyrrolo[3,2-d]pyrimidin-5-yl]methoxy}-5-oxopentyl (2R)-2-{[(tert-butoxy)carbonyl]amino}-4-methylpentanoate [Example 348]”, the SIF in data set [1] (setting [6]) is recorded as 20% remaining. Moreover, the “human Plasma stability” value in data set [2] (human plasma, remaining at 1 h) amounted to 33% remaining. Further, the “Caco-2 Papp” value in data set [3] (Caco-2 monolayer) is less than 0.0965 ×10⁻⁶ cm/s. The SGF in data set [4] (setting [7]) is 88% remaining.

With “5-{[2-({[(5-{[(2S)-2-{[(tert-butoxy)carbonyl]amino}-4-methylpentanoyl]oxy}penta-noyl)oxy]methyl}sulfanyl)-4-oxo-1-[2-(propan-2-yloxy)ethyl]-1H,4H,5H-pyrrolo[3,2-d]pyrimidin-5-yl]methoxy}-5-oxopentyl (2S)-2-{[(tert-butoxy)carbonyl]amino}-4-methylpentanoate [Example 343]”, in data set [1] (% remaining @ 1 h), the SIF was 29% remaining. Also, the “human Plasma stability” value in data set [2] (% remaining @ 1 h) was determined as 1% remaining. For the same molecule, the “Caco-2 Papp” value in data set [3] (Caco-2) amounted to 4.67 ×10⁻⁶ cm/s. The SGF in data set [4] (% remaining @ 1 h) was 82% remaining.

On to “5-{[({2-[2-(2-{[(tert-butoxy)carbonyl]amino}ethoxy)eth-oxy]ethoxy}carbonyl)oxy]methyl}-1-[2-(propan-2-yloxy)ethyl]-2-sulfanylidene-1H,2H,3H,4H,5H-pyrrolo[3,2-d]pyrimidin-4-one [Example 370]”, for which the SIF in data set [1] (setting [6]) is reported as 35% remaining. The “human Plasma stability” value in data set [2] (human plasma, remaining at 1 h) was determined as 1% remaining. Moreover, the “Caco-2 Papp” value in data set [3] (Caco-2 monolayer) worked out at 1.54 ×10⁻⁶ cm/s. In addition, the SGF in data set [4] (setting [7]) was 99% remaining.

“15-[2-(propan-2-yloxy)ethyl]-14-sulfanylidene-3,5,9,11-tetraoxa-1,13,15-triazatricyclo[11.5.2.0^{16,19}]icosa 16(19),17-diene-4,10,20-trione [Example 409]”: in data set [1] (setting [8]), the SIF is reported as 28% remaining. The “human Plasma stability” value in data set [2] (setting [9]) is 4% remaining. Further, the “Caco-2 Papp” value in data set [3] (Caco-2 monolayer) is less than 0.107 ×10⁻⁶ cm/s. Besides, in data set [4] (setting [10]), the SGF is given as 94% remaining.

For “17-[2-(propan-2-yloxy)ethyl]-16-sulfanylidene-3,5,8,11,13-pentaoxa-1,15,17-triazatricyclo[13.5.2.0^{18,21}]docosa-18(21),19-diene-4,12,22-trione [Example 404]”, the SIF in data set [1] (setting [8]) is 86% remaining. The “human Plasma stability” value in data set [2] (setting [9]) is on record as 77% remaining. In addition, the “Caco-2 Papp” value in data set [3] (Caco-2 monolayer) came to 5.08 ×10⁻⁶ cm/s. In addition, the SGF in data set [4] (setting [10]) was 92% remaining.

With `CC(C)OCCn1c(=S)n(COC(=O)[C@H](C)N)c(=O)c2c1ccn2CO.O=C(O)C(F)(F)F` [Example 290, trifluoroacetic acid [5-(hydroxymethyl)-4-oxo-1-[2-(propan-2-yloxy)ethyl]-2-sulfanylidene-1H,2H,3H,4H,5H-pyrrolo[3,2-d]pyrimidin-3-yl]methyl (2S)-2-aminopropanoate], in data set [1] (% remaining @ 1 h), the SIF is reported as 10% @ 1 h. In data set [3], the “Caco-2 Papp (nm/s)” value is given as “unstable”. Moreover, in data set [4] (% remaining @ 1 h), the SGF is 98% @ 1 h.

Consider `CSCC[C@@H](N)C(=O)OCCC(=O)OCn1ccc2c1c(=O)[nH]c(=S)n2CCOC(C)C.O=C(O)C(F)(F)F` [Example 366, trifluoroacetic acid 3-oxo-3-({4-oxo-1-[2-(propan-2-yloxy)ethyl]-2-sulfanylidene-1H,2H,3H,4H,5H-pyrrolo[3,2-d]pyrimidin-5-yl}methoxy)propyl (2R)-2-amino-4-(methylsulfanyl)butanoate], for which the SIF in data set [1] (setting [6]) is 2% remaining. For the same molecule, in data set [2] (human plasma, remaining at 1 h), the “human Plasma stability” value is reported as 74% remaining. In data set [5], this molecule returned a Papp at 90 min, 10 µM of less than 0.76 ×10⁻⁶ cm/s. Moreover, in data set [4] (setting [7]), the SGF is given as 76% remaining.

As to `CC(C)C[C@H](N)C(=O)OCCC(=O)OCn1ccc2c1c(=O)[nH]c(=S)n2CCOC(C)C.O=C(O)C(F)(F)F` [Example 367, trifluoroacetic acid 3-oxo-3-({4-oxo-1-[2-(propan-2-yloxy)ethyl]-2-sulfanylidene-1H,2H,3H,4H,5H-pyrrolo [3,2-d]pyrimidin-5-yl}methoxy)propyl (2S)-2-amino-4-methylpentanoate], the SIF in data set [1] (setting [6]) is recorded as 0% remaining. Moreover, the “human Plasma stability” value in data set [2] (human plasma, remaining at 1 h) came out at 1% remaining. Further, the Papp at 90 min, 10 µM in data set [5] was less than 0.108 ×10⁻⁶ cm/s. Besides, the SGF in data set [4] (setting [7]) is listed as 100% remaining.

As for `CC(C)C[C@@H](N)C(=O)OCCC(=O)OCn1ccc2c1c(=O)[nH]c(=S)n2CCOC(C)C.O=C(O)C(F)(F)F` [Example 368, trifluoroacetic acid 3-oxo-3-({4-oxo-1-[2-(propan-2-yloxy)ethyl]-2-sulfanylidene-1H,2H,3H,4H,5H-pyrrolo[3,2-d]pyrimidin-5-yl}methoxy)propyl (2R)-2-amino-4-methylpentanoate], the SIF in data set [1] (setting [6]) was 1% remaining. Also, the “human Plasma stability” value in data set [2] (human plasma, remaining at 1 h) is listed as 1% remaining. In data set [5], the apparent permeability (Papp) at 90 min, 10 µM turned out to be 0.12 ×10⁻⁶ cm/s. The SGF in data set [4] (setting [7]) is reported as 100% remaining.

In the case of `CC(C)OCCn1c(SCOC(=O)OCCOCCNC(=O)OC(C)(C)C)nc(=O)c2[nH]ccc21` [Example 369, 2-{[{{[2-(2-{[(tert-butoxy)carbonyl]amino}ethoxy)eth-oxy]carbonyl}oxy)methyl]sulfanyl}-1-[2-(propan-2-yloxy)ethyl]-1H,4H,5H-pyrrolo[3,2-d]pyrimidin-4-one], in data set [1] (setting [6]), the SIF is 1% remaining. Also, the “human Plasma stability” value in data set [2] (human plasma, remaining at 1 h) is given as 1% remaining. Also, the Papp at 90 min, 10 µM in data set [5] is less than 0.107 ×10⁻⁶ cm/s. Also, the SGF in data set [4] (setting [7]) is 89% remaining.

On to `CSCC[C@@H](NC(=O)OC(C)(C)C)C(=O)NCCOCCOC(=O)OCn1ccc2c1c(=O)[nH]c(=S)n2CCOC(C)C` [Example 389, (2R)-2-{[(tert-butoxy)carbonyl]amino}-4-(methylsulfanyl)-N-[2-(2-{[{{4-oxo-1-[2-(propan-2-yloxy)ethyl]-2-sulfanylidene-1H,2H,3H,4H,5H-pyrrolo[3,2-d]pyrimidin-5-yl}methoxy)carbonyl]oxy}ethoxy)eth-yl]butanamide], for which the SIF in data set [1] (setting [6]) is listed as 60% remaining. Moreover, the “human Plasma stability” value in data set [2] (human plasma, remaining at 1 h) was determined as 1% remaining. This molecule came in with a Papp at 90 min, 10 µM in data set [5] of 5.94 ×10⁻⁶ cm/s. In data set [4] (setting [7]), the SGF is given as 98% remaining.
